The source of these data is patent US20140023611A1 (priority 2010, published 2014).

The experiment has as its target T1, rat NaP2b (SLC34A2) (Rattus norvegicus, UniProt Q9JJ09).
T1 construct: host or cells: HEK293
T1 sequence (Q9JJ09 1-695): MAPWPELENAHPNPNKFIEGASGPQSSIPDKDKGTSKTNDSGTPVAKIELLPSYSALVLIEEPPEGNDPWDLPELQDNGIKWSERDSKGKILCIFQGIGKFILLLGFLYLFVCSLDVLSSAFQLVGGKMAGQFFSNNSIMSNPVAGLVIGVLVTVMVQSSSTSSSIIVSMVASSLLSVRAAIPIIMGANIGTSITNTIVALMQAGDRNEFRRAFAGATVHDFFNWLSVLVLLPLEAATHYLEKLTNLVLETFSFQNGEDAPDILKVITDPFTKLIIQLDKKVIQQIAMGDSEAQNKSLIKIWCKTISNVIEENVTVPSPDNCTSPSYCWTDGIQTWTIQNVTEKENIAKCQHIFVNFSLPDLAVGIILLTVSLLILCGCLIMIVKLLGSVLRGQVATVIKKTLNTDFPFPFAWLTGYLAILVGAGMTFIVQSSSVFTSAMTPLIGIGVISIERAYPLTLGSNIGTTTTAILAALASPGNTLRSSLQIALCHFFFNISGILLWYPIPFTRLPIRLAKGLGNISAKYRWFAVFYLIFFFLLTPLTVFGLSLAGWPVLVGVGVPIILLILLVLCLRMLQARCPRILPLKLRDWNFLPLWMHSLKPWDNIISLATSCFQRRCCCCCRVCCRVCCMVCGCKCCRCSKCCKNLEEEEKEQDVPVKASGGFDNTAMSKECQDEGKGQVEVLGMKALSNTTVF
The experiment in a line: Inhibition of NaP2b-mediated Pi (33P) uptake in transfected HEK293 cells, rat NaP2b. In kind it is cell-based. The conditions noted are these: 33P Pi uptake, 0.1 mM phosphate, value given as pIC50 range. The protocol: HEK293 cells were obtained from the American Type Culture collection and propagated per their instructions. […] The sequence of the human protein was mutated to insert a threonine after residue 37, and to introduce a N39D mutation.
Cells were seeded into 96-well plates at 25,000 cells/well and cultured overnight. Lipofectamine 2000 (Invitrogen) was used to introduce the NaP2b cDNA, and the cells were allowed to approach confluence during a second overnight incubation. […] Each compound was tested at twelve concentrations ranging from 0.1 nM to 30 uM. Assays were run in duplicate.
Cells were lysed by addition of 20 μL 0.1% Tween 80 followed by 100 μL scintillation fluid, and counted using a TopCount (Perkin Elmer).
pIC50 (the negative log of the IC50) values of the test compounds were calculated using GraphPad Prism.

By IC50 is commonly meant the midpoint of a concentration-inhibition curve. Read a high IC50 as weaker potency. The compound `CC(=O)NC1CCN(C(=O)c2cccc(C(=O)Nc3ccc(N4CCCCC4)cc3-c3cc(C(=O)NCc4cccc(C(F)(F)F)c4)ccn3)c2)C1` (stereo in doubt) [Example 4.10, (S)-2-(2-(3-(3-Acetamidopyrrolidine-1-carbonyl)benzamido)-5-(piperidin-1-yl)phenyl)-N-(3-(trifluoromethyl)benzyl)isonicotinamide] had an IC50 of 10 to 31.6 µM.

The compound `COCCNC(=O)C1CCCN(Cc2cccc(C(=O)Nc3ccc(N4CCCCC4)cc3-c3cc(C(=O)NCc4cccc(C(F)(F)F)c4)ccn3)c2)C1` (stereo in doubt) [Example 12.1, (S)-2-(2-(3-((3-((2-Methoxyethyl)carbamoyl)piperidin-1-yl)methyl)benzamido)-5-(piperidin-1-yl)phenyl)-N-(3-(trifluoromethyl)benzyl)isonicotinamide] gave an IC50 of 1 to 7.94 µM. To `COCCNC(=O)C1CCCN(Cc2cccc(C(=O)Nc3ccc(N4CCCCC4)cc3-c3cc(C(=O)NCc4cccc(C(F)(F)F)c4)ccn3)c2)C1` (stereo in doubt) [Example 12.2, (R)-2-(2-(3-((3-((2-Methoxyethyl)carbamoyl)piperidin-1-yl)methyl)benzamido)-5-(piperidin-1-yl)phenyl)-N-(3-(trifluoromethyl)benzyl)isonicotinamide] belongs 10 to 31.6 µM. `O=C(O)CCSCc1cccc(C(=O)Nc2ccc(N3CCCCC3)cc2-c2cc(C(=O)NCc3ccc(C(F)(F)F)nc3)ccn2)c1` [Example 1.2, 3-((3-((4-(Piperidin-1-yl)-2-(4-(((6-(trifluoromethyl)pyridin-3-yl)methyl)carbamoyl)pyridin-2-yl)phenyl)carbamoyl)benzyl)thio)propanoic acid] had a half-inhibitory concentration (IC50) of 10 to 31.6 µM. `CC(C)(C)c1ccc(CNC(=O)c2ccnc(-c3cc(N4CCCCC4)ccc3NC(=O)c3cccc(CSCCC(=O)O)c3)c2)cc1` [Example 1.3, 3-((3-((2-(4-((4-(Tert-butyl)benzyl)carbamoyl)pyridin-2-yl)-4-(piperidin-1-yl)phenyl)carbamoyl)benzyl)thio)propanoic acid] had an IC50 of 1 to 7.94 µM. Turning to `O=C(O)CCSCc1cccc(C(=O)Nc2ccc(N3CCCCC3)cc2-c2cc(C(=O)NCCc3cccc(C(F)(F)F)c3)ccn2)c1` [Example 1.5], the 50% inhibitory concentration (IC50) is 1 to 7.94 µM.

Regarding `CCCCCCCNC(=O)c1ccnc(-c2cc(N3CCCCC3)ccc2NC(=O)c2cccc(CSCCC(=O)O)c2)c1` [Example 1.6], the IC50 is 1 to 7.94 µM.

`O=C(O)CCSCc1cccc(C(=O)Nc2ccc(N3CCCCC3)cc2-c2cc(C(=O)NCC3CCCCC3)ccn2)c1` [Example 1.7] gave an IC50 of 1 to 7.94 µM. As for `CC(C)CNC(=O)c1ccnc(-c2cc(N3CCCCC3)ccc2NC(=O)c2cccc(CSCCC(=O)O)c2)c1` [Example 1.8], the IC50 was 10 to 31.6 µM. The compound `CN(C)c1ccc(CNC(=O)c2ccnc(-c3cc(N4CCCCC4)ccc3NC(=O)c3cccc(CSCCC(=O)O)c3)c2)cc1` [Example 1.10] had an IC50 of 1 to 7.94 µM. Consider `Nc1ccccc1CNC(=O)c1ccnc(-c2cc(N3CCCCC3)ccc2NC(=O)c2cccc(CSCCC(=O)O)c2)c1` [Example 1.11], for which the half-maximal inhibitory concentration (IC50) is 10 to 31.6 µM. To `O=C(O)CCSCc1cccc(C(=O)Nc2ccc(N3CCCCC3)cc2-c2cc(C(=O)NCc3cccc4ccccc34)ccn2)c1` [Example 1.12] belongs 1 to 7.94 µM. The same measure for `O=C(O)CCSCc1cccc(C(=O)Nc2ccc(N3CCCCC3)cc2-c2cc(C(=O)NC3CCCc4ccccc43)ccn2)c1` (stereo not drawn) [Example 1.13]: 1 to 7.94 µM.

In the case of `O=C(O)CCSCc1cccc(C(=O)Nc2ccc(N3CCCCC3)cc2-c2cc(C(=O)NCc3ccc(N4CCCCC4)cc3)ccn2)c1` [Example 1.14], the IC50 is 1 to 7.94 µM. `O=C(O)CCSCc1cccc(C(=O)Nc2ccc(N3CCCCC3)cc2-c2cc(C(=O)NCc3cccc(N4CCCCC4)c3)ccn2)c1` [Example 1.15] gave an IC50 of 1 to 7.94 µM. To `O=C(O)CCSCc1cccc(C(=O)Nc2ccc(N3CCCCC3)cc2-c2cc(C(=O)NCc3cccc(CN4CCOCC4)c3)ccn2)c1` [Example 1.16] belongs 10 to 31.6 µM. Compound `Cc1ccc(Cl)cc1CNC(=O)c1ccnc(-c2cc(N3CCCCC3)ccc2NC(=O)c2cccc(CSCCC(=O)O)c2)c1` [Example 1.17] gave an IC50 of 1 to 7.94 µM. Turning to `Cc1ccc(CNC(=O)c2ccnc(-c3cc(N4CCCCC4)ccc3NC(=O)c3cccc(CSCCC(=O)O)c3)c2)o1` [Example 1.18], the IC50 was 1 to 7.94 µM. To `O=C(O)CCSCc1cccc(C(=O)Nc2ccc(N3CCCCC3)cc2-c2cc(C(=O)Nc3nc4ccccc4[nH]3)ccn2)c1` [Example 1.19] belongs 10 to 31.6 µM; to `O=C(O)CCSCc1cccc(C(=O)Nc2ccc(N3CCCCC3)cc2-c2cc(C(=O)Nc3ccc4ncsc4c3)ccn2)c1` [Example 1.20], 10 to 31.6 µM; to `O=C(O)CCSCc1cccc(C(=O)Nc2ccc(N3CCCCC3)cc2-c2cc(C(=O)NCc3cccc(-n4cccn4)c3)ccn2)c1` [Example 1.21], 10 to 31.6 µM. To `O=C(O)CCSCc1cccc(C(=O)Nc2ccc(N3CCCCC3)cc2-c2cc(C(=O)NCc3ccc4c(c3)OCCCO4)ccn2)c1` [Example 1.22] belongs 1 to 7.94 µM; to `O=C(O)CCSCc1cccc(C(=O)Nc2ccc(N3CCCCC3)cc2-c2cc(C(=O)NCc3ccc4c(c3)OCO4)ccn2)c1` [Example 1.23], 1 to 7.94 µM; to `O=C(O)CCSCc1cccc(C(=O)Nc2ccc(N3CCCCC3)cc2-c2cc(C(=O)NCc3ccc4c(c3)CCO4)ccn2)c1` [Example 1.24], 1 to 7.94 µM. For the compound `O=C(O)CCSCc1cccc(C(=O)Nc2ccc(N3CCCCC3)cc2-c2cc(C(=O)NCc3ccc(F)c(OC(F)(F)F)c3)ccn2)c1` [Example 1.25], the IC50 was 1 to 7.94 µM. `O=C(O)CCSCc1cccc(C(=O)Nc2ccc(N3CCCCC3)cc2-c2cc(C(=O)NCc3ccc(OC(F)(F)F)c(F)c3)ccn2)c1` [Example 1.26] gave an IC50 of 1 to 7.94 µM. For the compound `COc1ccc(CNC(=O)c2ccnc(-c3cc(N4CCCCC4)ccc3NC(=O)c3cccc(CSCCC(=O)O)c3)c2)cc1C(F)(F)F` [Example 1.27], the IC50 is 10 to 31.6 µM. The same measure for `O=C(O)CCSCc1cccc(C(=O)Nc2ccc(N3CCCCC3)cc2-c2cc(C(=O)NCc3ccc(F)c(C(F)(F)F)c3)ccn2)c1` [Example 1.28]: 1 to 7.94 µM. With `O=C(O)CCSCc1cccc(C(=O)Nc2ccc(N3CCCCC3)cc2-c2cc(C(=O)NCc3cc(F)cc(C(F)(F)F)c3)ccn2)c1` [Example 1.29], the half-maximal inhibitory concentration (IC50) is 1 to 7.94 µM.

Turning to `O=C(O)CCSCc1cccc(C(=O)Nc2ccc(N3CCCCC3)cc2-c2cc(C(=O)NCc3cc(C(F)(F)F)ccc3F)ccn2)c1` [Example 1.30], the IC50 was 1 to 7.94 µM.

In the case of `O=C(O)CCSCc1cccc(C(=O)Nc2ccc(N3CCCCC3)cc2-c2cc(C(=O)NCc3cccc(C(F)(F)F)c3F)ccn2)c1` [Example 1.31], the IC50 was 1 to 7.94 µM. `O=C(O)CCSCc1cccc(C(=O)Nc2ccc(N3CCCCC3)cc2-c2cc(C(=O)NCc3ccc(Cl)c(C(F)(F)F)c3)ccn2)c1` [Example 1.33] gave an IC50 of 1 to 7.94 µM.

The compound `O=C(O)CCSCc1cccc(C(=O)Nc2ccc(N3CCCCC3)cc2-c2cc(C(=O)NC3CCc4ccccc43)ccn2)c1` (stereo not drawn) [Example 1.34] gave a 50% inhibitory concentration (IC50) of 1 to 7.94 µM.

In turn, `O=C(O)CCSCc1cccc(C(=O)Nc2ccc(N3CCCCC3)cc2-c2cc(C(=O)NC3Cc4ccccc4C3)ccn2)c1` [Example 1.35] showed a half-maximal inhibitory concentration (IC50) of 1 to 7.94 µM.

Take `O=C(O)CCSCc1cccc(C(=O)Nc2ccc(N3CCCCC3)cc2-c2cc(C(=O)NC(c3ccccc3)c3ccccc3)ccn2)c1` [Example 1.36]: the half-maximal inhibitory concentration (IC50) was 1 to 7.94 µM.

For the compound `CN(Cc1cccc(C(F)(F)F)c1)C(=O)c1ccnc(-c2cc(N3CCCCC3)ccc2NC(=O)c2cccc(CSCCC(=O)O)c2)c1` [Example 1.37], the IC50 was 1 to 7.94 µM.

Compound `Cc1cccc(CN(C)C(=O)c2ccnc(-c3cc(N4CCCCC4)ccc3NC(=O)c3cccc(CSCCC(=O)O)c3)c2)c1` [Example 1.38] gave an IC50 of 10 to 31.6 µM. Compound `O=C(O)CCSCc1cccc(C(=O)Nc2ccc(N3CCCCC3)cc2-c2cc(C(=O)NCc3ccc(OCc4ccccc4)cc3)ccn2)c1` [Example 1.39] showed an IC50 of 1 to 7.94 µM. As for `O=C(O)CCSCc1cccc(C(=O)Nc2ccc(N3CCCCC3)cc2-c2cc(C(=O)NCc3ccc(Oc4ccccc4)cc3)ccn2)c1` [Example 1.40], the IC50 was 1 to 7.94 µM. As for `O=C(O)CCSCc1cccc(C(=O)Nc2ccc(N3CCCCC3)cc2-c2cc(C(=O)NCc3cccc(-c4ccccc4)c3)ccn2)c1` [Example 1.42], the 50% inhibitory concentration (IC50) is 1 to 7.94 µM.

The compound `O=C(O)CCSCc1cccc(C(=O)Nc2ccc(N3CCCCC3)cc2-c2cc(C(=O)NCc3ccccc3OC(F)(F)F)ccn2)c1` [Example 1.43] had a concentration for half-maximal inhibition (IC50) of 1 to 7.94 µM. `O=C(O)CCSCc1cccc(C(=O)Nc2ccc(N3CCCCC3)cc2-c2cc(C(=O)NCc3ccc(OC(F)(F)F)cc3)ccn2)c1` [Example 1.44] showed a half-inhibitory concentration (IC50) of 1 to 7.94 µM.
